Drawing on patent US8927500B2, “Peptidomimetic macrocycles” (Aileron Therapeutics, Inc., priority 2012, dated 2015), this text covers IC50 and Ki for five molecules.

In one assay the target is MDM2 (Homo sapiens, UniProt Q00987). The assay is described as follows: Competitive fluorescence polarization assay for MDM2. Format: binding. Conditions: competitive FP assay, MDM2; for IC50: read-out: IC50 (MDM2); for Ki: read-out: Ki (MDM2). A general note: In fluorescence polarisation assays a small probe gives low polarisation when free and higher when bound to something large.
Chain of MDM2 (Q00987 1-125): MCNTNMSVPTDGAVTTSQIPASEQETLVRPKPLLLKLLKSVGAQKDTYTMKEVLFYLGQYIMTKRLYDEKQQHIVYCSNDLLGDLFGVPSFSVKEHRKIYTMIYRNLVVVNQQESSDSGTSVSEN

The next assay concerns the target T1, MDMX (Homo sapiens, UniProt O15151).
T1 sequence (O15151 1-125): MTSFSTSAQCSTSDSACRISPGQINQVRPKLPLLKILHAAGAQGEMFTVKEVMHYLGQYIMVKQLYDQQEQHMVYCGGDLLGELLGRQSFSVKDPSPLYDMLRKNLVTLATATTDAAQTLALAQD
Put plainly: Competitive fluorescence polarization assay for MDMX. It is filed as binding. Conditions: competitive FP assay; for IC50: read-out: IC50 (MDMX); for Ki: read-out: Ki (MDMX).

Where a SMILES comes first, the peptide text is derived from it. Bridges are numbered along the chain shown (N, C = ends). [ ]: non-standard residue; d: D form. R8 = C=CCCCCCC[C@@](C)(N)C(=O)O; hLeu = CC(C)CC[C@H](N)C(=O)O; S5 = C=CCCC[C@](C)(N)C(=O)O; Aib = CC(C)(N)C(=O)O

Broadly, the IC50 is the point on the concentration scale where inhibition reaches its midpoint. Broadly, the Ki is the equilibrium dissociation constant of an inhibitor or competing ligand from its target. With `CC(=O)N[C@@H](CC(C)C)C(=O)N[C@H](C(=O)N[C@@H](Cc1ccccc1)C(=O)N[C@]1(C)CCCCCCC=CCCC[C@@](C)(C(=O)N[C@@H](Cc2c[nH]cn2)C(=O)NC(C)(C)C(=O)N[C@@H](CCC(C)C)C(=O)N[C@H](C(N)=O)C(C)C)NC(=O)[C@H](CC(C)C)NC(=O)[C@H](CCC(N)=O)NC(=O)[C@H](C)NC(=O)[C@H](Cc2c[nH]c3ccccc23)NC(=O)[C@H](Cc2ccc(O)cc2)NC(=O)[C@H](C)NC1=O)[C@@H](C)O` [compound 49] (Ac-LTF[R8]AYWAQL[S5]H[Aib][hLeu]V-NH2; staple 4-11), at MDM2, the IC50 fell in the range of 100 to 1000 nM and the Ki was 10 to 100 nM. On MDMX, the IC50 is 100 to 1000 nM and the Ki lay in the range of 10 to 100 nM.
Take `CC(=O)N[C@@H](CC(=O)O)C(=O)N[C@@H](CC(C)C)C(=O)N[C@H](C(=O)N[C@@H](Cc1ccccc1)C(=O)N[C@]1(C)CCCCCCC=CCCC[C@@](C)(C(=O)N[C@@H](CCCNC(=N)N)C(=O)N[C@@H](CCCNC(=N)N)C(=O)N[C@@H](CC(C)C)C(=O)N[C@H](C)C(N)=O)NC(=O)[C@H](CC(C)C)NC(=O)[C@H](CCC(N)=O)NC(=O)[C@H](Cc2c[nH]cn2)NC(=O)[C@H](Cc2c[nH]c3ccccc23)NC(=O)[C@H](Cc2c[nH]cn2)NC(=O)[C@H](Cc2c[nH]cn2)NC1=O)[C@@H](C)O` [compound 52] (Ac-DLTF[R8]HHWHQL[S5]RRL[dA]-NH2; staple 5-12): at MDM2, the IC50 fell in the range of 10 to 100 nM and the Ki was below 10 nM. At MDMX, the IC50 lay within 10 to 100 nM and the inhibition constant Ki is below 10 nM.
Regarding `CC(=O)N[C@@H](Cc1ccccc1)C(=O)N[C@]1(C)CCCCCCC=CCCC[C@@](C)(C(=O)N[C@@H](CCCNC(=N)N)C(=O)N[C@@H](CCCNC(=N)N)C(=O)N[C@@H](CC(=O)O)C(=O)N[C@@H](C)C(N)=O)NC(=O)[C@H](CC(C)C)NC(=O)[C@H](CCC(N)=O)NC(=O)[C@H](Cc2c[nH]cn2)NC(=O)[C@H](Cc2c[nH]c3ccccc23)NC(=O)[C@H](Cc2c[nH]cn2)NC(=O)[C@H](Cc2c[nH]cn2)NC1=O` [compound 54] (Ac-F[R8]HHWHQL[S5]RRDA-NH2; staple 2-9), the IC50 on MDM2 and at MDMX was 100 to 1000 nM throughout. Moreover, the Ki on MDM2 and on MDMX was 10 to 100 nM throughout.
In the case of `CC(=O)N[C@@H](CCC(=O)O)C(=O)N[C@H](C(=O)N[C@@H](Cc1ccccc1)C(=O)N[C@]1(C)CCCCCCC=CCCC[C@@](C)(C(=O)N[C@@H](CO)C(=O)N[C@@H](C)C(=O)N[C@H](C)C(N)=O)NC(=O)[C@H](CC(C)C)NC(=O)[C@H](CCC(N)=O)NC(=O)[C@H](C)NC(=O)[C@H](Cc2c[nH]c3ccccc23)NC(=O)[C@H](Cc2ccc(O)cc2)NC(=O)[C@H](C(C)C)NC1=O)[C@@H](C)O` [compound 124] (Ac-ETF[R8]VYWAQL[S5]SA[dA]-NH2; staple 4-11), at MDM2, the IC50 is below 10 nM and the Ki is below 10 nM. Also, at MDMX, the IC50 is 100 to 1000 nM and the Ki was in the range of 10 to 100 nM.
`CC(=O)N[C@@H](CCC(=O)O)C(=O)N[C@H](C(=O)N[C@@H](Cc1ccccc1)C(=O)N[C@]1(C)CCCCCCC=CCCC[C@@](C)(C(=O)N[C@@H](CO)C(=O)N[C@@H](Cc2c[nH]c3ccccc23)C(=O)N[C@@H](C)C(N)=O)NC(=O)[C@H](CC(C)C)NC(=O)[C@H](CCC(N)=O)NC(=O)[C@H](C)NC(=O)[C@H](Cc2c[nH]c3ccccc23)NC(=O)[C@H](Cc2ccc(O)cc2)NC(=O)[C@H](C(C)C)NC1=O)[C@@H](C)O` [compound 128] (Ac-ETF[R8]VYWAQL[S5]SWA-NH2; staple 4-11): on MDM2, the IC50 is below 10 nM and the Ki was below 10 nM. Besides, on MDMX, the IC50 is 100 to 1000 nM and the Ki was 10 to 100 nM.
